Test results taken from US7879872B2, “Compositions comprising multiple bioactive agents, and methods of using the same” (Affinium Pharmaceuticals, Inc., priority 2003, dated 2011).
Where “and” joins values, the source holds several entries; their conditions need not be identical. Identical values can stand only once.

Experiments:
S. pneumoniae SP_22257 = test: checkerboard combination, clinical bacterial isolates (FIC); type: cell-based; conditions: compound G with Azithromycin; S. pneumoniae SP_22257 (PenR EryS ClinS)
Description: (§1) The combination experiments were performed and the results were interpreted using the checkerboard method as described in Eliopoulous, G. M., and R. C. Moellering, 1996, Antimicrobial combinations, p. 330-396, In V. Lorian (ed.), Antibiotics in laboratory medicine, 4th ed., The Williams & Wilkins Co., Baltimore, Md., in 96-well microtiter plates. Compound A was serially diluted along the x-axis of the test plate to a final volume of 50 μl, and compound B was serially diluted in a separate transfer plate. Dilutions in both plates were made in CAMHB (cation-adjusted Mueller Hinton broth) for Staphylococci and in CAMHB+5% sheep blood for Streptococci. Aliquots (50 μl) of Compound B were transferred to the test plate along the y-axis thereby achieving a checkerboard matrix of antimicrobial combinations (100 μl total volume) as in FIG. 4. The first column and last row (shaded in FIG. 4) contained only compound B or compound A, respectively. Plates were then inoculated with 10 μl of the test microorganism and MICs were determined according to NCCLS guidelines (see National Committee for Clinical Laboratory Standards, 2000, Methods for Dilution Antimicrobial Susceptibility Tests for Bacteria That Grow Aerobically—Fifth Edition, Approved Standard M7-A5, NCCLS, Wayne, Pa., USA.)
(§2) Data analysis was performed as follows and according to Eliopoulous, G. M., and R. C. Moellering, 1996, Antimicrobial combinations, p. 330-396, In V. Lorian (ed.), Antibiotics in laboratory medicine, 4th ed., The Williams & Wilkins Co., Baltimore, Md. First individual FIC values for each combination in a plate were calculated: FIC(Fractional Inhibitory Concentration)=FICA+FICB • FICA=MICA+B/MICA i.e. the MIC of combination of compound A+compound B divided by the MIC of compound A alone. • FICB=MICB+A/MICB i.e. the MIC of combination of compound B+compound A divided by the MIC of compound B alone.
(§3) FIC values were calculated only for combinations that enabled determination of a true MIC (e.g. not > or <=values). FIC indexes were then calculated as the average of individual FIC values for each combination plate.

P. aeruginosa PA_27853 = test: as above; type: cell-based
Description: as §1, §2, §3

[1] = test system: S. pneumoniae 22425, a penicillin and macrolide resistant clinical isolate; test: Combination time-kill studies; type: cell-based; conditions: compound alone at both 0.03 μg/ml and 1 μg/ml; S. pneumoniae 22425; FIG. 8
Description: Combination time-kill studies were performed as follows. Bacterial inocula were prepared as for MIC determination according to CLSI guidelines. Log phase cells (˜10^6 CFU/ml) were inoculated into 24 well plates and incubated with the indicated concentrations of compound G and commercial antibiotics for 24 hours at 35° C. At indicated time points samples were removed for determination of viable CFU counts. Results are plotted as log CFU/ml vs. time.

[2] = test system: major pathogenic species tested; test: Checkerboard combination studies of compound G and commercial antibiotics (FIG. 7); type: cell-based; conditions: all major pathogenic species tested
Description: Checkerboard experiments were performed and analyzed according to standard procedures as outlined below.

S. aureus 29213 = test: checkerboard combination study (FIC index); type: cell-based, Staphylococcus aureus; design: key: FIC index = average of FICA+FICB (MIC combo/MIC alone)
Description: as §1, §2, §3

S. aureus 43300 = test: checkerboard combination study (FIC index); type: cell-based, Staphylococcus aureus; design: key: FIC index = average of FICA+FICB (MIC combo/MIC alone); conditions: S. aureus 43300 (MRSA)
Description: as §1, §2, §3

E. faecalis A6221420 = test: Combination Time-kill kinetics; type: cell-based; conditions: alone or with Meropenem 4 × MIC (16 ug/ml)
Description: (§4) As used herein, “synergy” refers to the in vitro effect of administration of a combination of an antibacterial agent such as a Fab I inhibiter, and antiinfective agent such that (1) the fractional inhibitory concentration (FIC) is less than or equal to 0.5 in an FIC assay described herein; or (2) there is at least a 100-fold (2 log10) increase in killing at 24 hours for the combination as compared with the bioactive agent alone in a time kill curve assay as described herein. An FIC of ≦0.5 is evidence of synergy. An additive response has an FIC value of >0.5 and less than or equal to 1, while an indifferent response has an FIC value of >1 and ≦2. An additive effect may still indicate that the combination of bioactive agent and cationic peptide are therapeutically useful.

S. pneumoniae 22425 = test: Combination Time-kill kinetics; type: cell-based; conditions: alone or with Gatifloxacin 4 × MIC (2 ug/ml)
Description: as §4

S. pneumoniae 22257 = test: Combination Time-kill kinetics; type: cell-based; conditions: alone or with Azithromycin 4 × MIC (0.12 ug/ml) or Cefuroxime 4 × MIC (8 ug/ml)
Description: as §4

## Cc1c(CN(C)C(=O)/C=C/c2cnc3c(c2)CCC(=O)N3)oc2ccccc12 [Compound G, (E)-N-methyl-N-(3-methylbenzofuran-2-ylmethyl)-3-(7-oxo-5,6,7,8-tetrahydro-1,8-naphthyridin-3-yl)acrylamide]
S. pneumoniae SP_22257
  FIC: <2
P. aeruginosa PA_27853; compound G with Gatifloxacin
  FIC: <2
P. aeruginosa PA_27853; compound G with Meropenem
  FIC: <2
[1]
  activity against S. pneumoniae (time-kill): no activity
[2]
  antagonism in compound G combinations: did not show antagonism
S. aureus 29213; with Cefuroxime
  FIC Index: 0.8
S. aureus 29213; with Cloxacillin
  FIC Index: 2
S. aureus 29213; with Erythromycin
  FIC Index: 2
S. aureus 29213; with Gentamcin
  FIC Index: 0.3
S. aureus 29213; with Levofloxacin
  FIC Index: 1
S. aureus 29213; with Linezolid
  FIC Index: 0.5
S. aureus 29213; with Nafcillin
  FIC Index: 0.8
S. aureus 29213; with Rifampicin
  FIC Index: 0.8
S. aureus 29213; with Tetracycline
  FIC Index: 2
S. aureus 29213; with Vancomycin
  FIC Index: 1
S. aureus 43300; with Cefuroxime
  FIC Index: 0.5
S. aureus 43300; with Cloxacillin
  FIC Index: 0.75
S. aureus 43300; with Gentamcin
  FIC Index: 0.4
S. aureus 43300; with Levofloxacin
  FIC Index: 2
S. aureus 43300; with Linezolid
  FIC Index: 0.5
S. aureus 43300; with Nafcillin
  FIC Index: 0.7
S. aureus 43300; with Rifampicin
  FIC Index: 0.75
S. aureus 43300; with Tetracycline
  FIC Index: 1
S. aureus 43300; with Vancomycin
  FIC Index: 0.75
E. faecalis A6221420; Compound G 0.03 ug/ml
  logCFU/ml at Time (hr): 0: 5.10 logCFU/ml
  logCFU/ml at Time (hr): 2: 6.03 logCFU/ml
  logCFU/ml at Time (hr): 4: 6.42 logCFU/ml
  logCFU/ml at Time (hr): 8: 9.88 logCFU/ml
  logCFU/ml at Time (hr): 24: 9.91 logCFU/ml
  ΔlogCFU/ml (24-0 hr): 4.81 logCFU/ml
E. faecalis A6221420; Compound G 1 ug/ml
  logCFU/ml at Time (hr): 0: 5.12 logCFU/ml
  logCFU/ml at Time (hr): 2: 5.93 logCFU/ml
  logCFU/ml at Time (hr): 4: 6.53 logCFU/ml
  logCFU/ml at Time (hr): 8: 9.76 logCFU/ml
  logCFU/ml at Time (hr): 24: 9.91 logCFU/ml
  ΔlogCFU/ml (24-0 hr): 4.79 logCFU/ml
S. pneumoniae 22425; Compound G 0.03 ug/ml
  logCFU/ml at Time (hr): 0: 5.20 logCFU/ml
  logCFU/ml at Time (hr): 2: 5.63 logCFU/ml
  logCFU/ml at Time (hr): 6: 7.25 logCFU/ml
  logCFU/ml at Time (hr): 24: 7.61 logCFU/ml
  ΔlogCFU/ml (24-0 hr): 2.41 logCFU/ml
S. pneumoniae 22425; Compound G 1 ug/ml
  logCFU/ml at Time (hr): 0: 5.12 logCFU/ml
  logCFU/ml at Time (hr): 2: 5.61 logCFU/ml
  logCFU/ml at Time (hr): 6: 7.18 logCFU/ml
  logCFU/ml at Time (hr): 24: 7.58 logCFU/ml
  ΔlogCFU/ml (24-0 hr): 2.45 logCFU/ml
S. pneumoniae 22257; Compound G 0.03 ug/ml
  logCFU/ml at Time (hr): 0: 6.41 logCFU/ml and 6.20 logCFU/ml
  logCFU/ml at Time (hr): 3: 8.31 logCFU/ml and 8.15 logCFU/ml
  logCFU/ml at Time (hr): 6: 9.23 logCFU/ml and 9.35 logCFU/ml
  logCFU/ml at Time (hr): 8: 9.32 logCFU/ml
  logCFU/ml at Time (hr): 24: 9.68 logCFU/ml and 9.65 logCFU/ml
  ΔlogCFU/ml (24-0 hr): 3.26 logCFU/ml and 3.45 logCFU/ml
S. pneumoniae 22257; Compound G 1 ug/ml
  logCFU/ml at Time (hr): 0: 6.43 logCFU/ml and 6.30 logCFU/ml
  logCFU/ml at Time (hr): 3: 8.30 logCFU/ml and 8.17 logCFU/ml
  logCFU/ml at Time (hr): 6: 9.33 logCFU/ml and 9.20 logCFU/ml
  logCFU/ml at Time (hr): 8: 9.47 logCFU/ml and 9.41 logCFU/ml
  logCFU/ml at Time (hr): 24: 9.68 logCFU/ml and 9.71 logCFU/ml
  ΔlogCFU/ml (24-0 hr): 3.25 logCFU/ml and 3.40 logCFU/ml
